Laboratory results reported in patent US5081112A, “Method for treating hyperlipidemia” (Otsuka Pharmaceutical Factory Inc., priority 1986, dated 1992).

Legend:
Acute toxicity test = assay type: in vivo, Wistar-strain male rats; conditions: in vivo; oral; rat
Source text: (§1) Each of carboxamide compounds represented by the formula (1), which is the active ingredient contained in pharmaceutical composition according to the present invention, was suspended in 5%-CMC-Na aqueous solution and administered orally to Wistar-strain male rats of 7 week age (one test group consisting of 6 rats) so as to observe the acute toxicity of each of the carboxamide compounds.
(§2) Thus, LD50 value of Test compound No. 2 is considered to higher than […]. Thus, carboxamide compounds represented by the formula (1) according to the present invention can be said as quite safety compounds.

Wistar-strain male rats = experiment: Acute toxicity test; assay type: in vivo; conditions: 2 g/kg oral; rat
Source text: as §1, §2

Compound: CCOP(=O)(Cc1ccc(C(=O)N(Cc2ccccc2)c2ccc(Cl)cc2)cc1)OCC [Test compound No. 2]
- LD50 (Acute toxicity test): > 2000 mg/kg
- lethal cases (Wistar-strain male rats): not any lathal case at all
